Experimental data: US20260345458A1, “Pharmaceutical, Dermatological or Cosmetic Compounds and Compositions for Reducing Melanin Synthesis, Stimulating Type I Collagen Production, Skin Depigmentation and/or Promoting a Skin Anti-Aging Effect in an Individual or Animal, Uses and Methods” (Chemyunion Ltda, priority 2022, published 2026)
Where a SMILES comes first, the peptide text is derived from it. The star is where a group is joined. Palmitoyl = CCCCCCCCCCCCCCCC(=O)*

What was measured:
melanin synthesis = settings: as reported in prior patent documents; cited from earlier work
rats = settings: cited from earlier work
[1] = system: type I collagen in human skin fragments; test: Collagen synthesis stimulation in human skin fragments (ex vivo explants, immunofluorescence); assay type: cell-based; settings: 72 h, ex vivo human skin explants (n=5), vs placebo, **p<0.01 (FIG. 3)
Description: (§1) FIG. 3. Semi-quantification of type I collagen levels. Data obtained by recording images of histological sections of human skin fragments previously treated with a formulation without active ingredient (Placebo) and treated with the same formulation containing the peptide SEQ ID No. 1 (Pal-Gln-His-Trp-Val-OH) (at 50 ppm or 100 ppm). **p<0.01 compared to the placebo group.
FIG. 4. Representative images of the effect of peptide SEQ ID No. 1 (Pal-Gln-His-Trp-Val-OH) on the synthesis of type I collagen in ex vivo skin fragments-immunofluorescence (400× magnification).
Example 2: Evaluation of Collagen Synthesis Stimulation in Human Skin Fragments
Skin explants (n=5) obtained from a surgical procedure performed by the ophthalmologic plastic surgery clinic were treated for 72 h with a formulation containing the peptide SEQ ID No. 1 (Pal-Gln-His-Trp-Val-OH) (at 50 ppm or 100 ppm) and with the same formulation without the addition of the peptide (placebo). After incubation with the test products as described above, the skin fragments were fixed in 4% paraformaldehyde (pH 7.4) for 24 h. […] The skin sections were then subjected to the specific labeling process for type I collagen for subsequent immunofluorescence analysis; the records were obtained using a fluorescence optical microscope coupled to a photographic camera.

[2] = system: melanin synthesis in human skin fragments; test: Inhibition of melanin synthesis in human skin fragments (ex vivo explants, Fontana Masson staining); assay type: cell-based; settings: 50 ppm; 72 h; ex vivo human skin explants (n=5); vs placebo; **p<0.01 (FIG. 1)
Description: as §1, with “1:” for “3.”, “melanin pigment” for “type I collagen”
FIG. 2: Representative images of the effect of peptide SEQ ID No. 1 (Pal-Gln-His-Trp-Val-OH) on melanin synthesis in ex vivo skin fragments-Fontana Masson staining (400× magnification).
Example 1: Evaluation of Inhibition of Melanin Synthesis in Human Skin Fragments
Skin explants (n=5), obtained from a surgical procedure performed by an ophthalmological plastic surgery clinic, were treated for 72 h with a formulation containing the peptide SEQ ID No. 1 (Pal-Gln-His-Trp-Val-OH), (at 50 ppm or 100 ppm) and with the same formulation without the addition of the peptide (placebo).
After incubation with the test products as described above, the skin fragments were fixed in 4% paraformaldehyde (pH 7.4) for 24 hours. […]
Subsequently, the slides were analyzed and recorded using an optical microscope coupled to a camera.

skin = settings: cited from earlier work; for ochronosis: skin becomes more pigmented than at the beginning of treatment

Caffeoyl-GlnHisGlyVal-OH
activity on melanin synthesis / skin lightening (melanin synthesis): has skin lightening activity due to its anti-inflammatory activity

O=c1cc(CO)occ1O [Kojic acid]
promotion of cancer (rats): has been found to promote the development of liver and thyroid cancer in rats

CCCCCCCCCCCCCCCC(=O)N[C@@H](CCC(N)=O)C(=O)N[C@@H](Cc1c[nH]cn1)C(=O)N[C@@H](Cc1c[nH]c2ccccc12)C(=O)N[C@H](C(=O)O)C(C)C [SEQ ID No. 1, Pal-Gln-His-Trp-Val-OH] (Palmitoyl-QHWV-OH)
stimulation of collagen I production compared to the placebo group ([1]; 50 ppm): 63% | increase in protein (type I collagen) synthesis compared to the placebo group ([1]; 100 ppm): 71% | reduction of melanin production compared to the placebo group [2]: 66%

CCCCCCCCCCCCCCCC(=O)N[C@@H](Cc1ccc(O)cc1)C(=O)N[C@@H](Cc1ccc(O)cc1)C(=O)N[C@@H](CCSC)C(N)=O [Pal-TyrTyrMet-NH2] (Palmitoyl-Tyr-Tyr-Met-NH2)
activity on melanin synthesis / skin lightening (melanin synthesis): stimulating melanin synthesis

OC[C@H]1O[C@@H](Oc2ccc(O)cc2)[C@H](O)[C@@H](O)[C@@H]1O [arbutin]
ochronosis (skin): can cause ochronosis

Oc1ccc(O)cc1 [hydroquinone]
ochronosis (skin): can cause ochronosis | effect on extracellular matrix fibers, adrenal glands, thyroid physiology and skin firmness (skin; topical application, studies suggest): can disrupt the fibers of the extracellular matrix (especially collagen and elastin), leading to changes in the adrenal glands and thyroid physiology, as well as loss of skin firmness
